Measured values taken from patent publication US20190322676A1, “CERAMIDE GALACTOSYLTRANSFERASE INHIBITORS FOR THE TREATMENT OF DISEASE” (BioMarin Pharmaceutical Inc., priority 2016, published 2019).
Counter-ions that a name gives are not always drawn.

biological target: T1, human CGT (ceramide galactosyltransferase), CHO/CGT lysate (Homo sapiens, UniProt Q16880); test: CGT enzyme assay, RapidFire/MS/MS readout (Table 1 ranges with one asterisk *); assay type: biochemical; conditions: RapidFire method (range with one asterisk *)
T1 construct: Full-length human CGT cDNA was cloned into the BamH1/Xho1 site of pcDNA3.1 (+); expressed in transfected cells; host or cells: Chinese hamster ovary (CHO) cells; lysate prepared with M-PER
T1 sequence (Q16880 21-541): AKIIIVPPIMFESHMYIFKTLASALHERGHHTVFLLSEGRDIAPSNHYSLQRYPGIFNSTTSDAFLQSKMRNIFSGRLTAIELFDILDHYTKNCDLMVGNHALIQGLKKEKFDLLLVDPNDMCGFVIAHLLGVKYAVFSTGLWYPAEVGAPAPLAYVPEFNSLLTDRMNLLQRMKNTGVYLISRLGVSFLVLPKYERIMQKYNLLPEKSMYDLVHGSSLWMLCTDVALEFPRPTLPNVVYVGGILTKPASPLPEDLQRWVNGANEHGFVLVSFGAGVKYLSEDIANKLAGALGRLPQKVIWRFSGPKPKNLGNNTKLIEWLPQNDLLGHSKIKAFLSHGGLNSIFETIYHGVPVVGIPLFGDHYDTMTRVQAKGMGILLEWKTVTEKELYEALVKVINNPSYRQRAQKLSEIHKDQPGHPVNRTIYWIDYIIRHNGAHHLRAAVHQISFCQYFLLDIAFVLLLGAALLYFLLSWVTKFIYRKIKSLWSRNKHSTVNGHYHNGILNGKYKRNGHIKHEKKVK
Procedure, shortened: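 IC50s come from variable-slope dose-response fits of internal-standard-normalized C6-NBD-dihydro-galactosylceramide, measured by RapidFire/MS/MS (ESI negative). Reactions: 1 h, 37 °C, human CGT-expressing CHO lysate (4 μg), 0.001–50 μM compound, 10 μM NBD-dihydro-ceramide, 17.5 μM UDP-galactose, 0.5% DMSO, pH 7.2; 0.01% Tween 80 added for ** values.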

Row | Structure (SMILES) | IC50
1 | NC1CCN(C(=O)[C@H](NS(=O)(=O)c2ccc3cc(OC4CCCC4)ccc3c2)C(F)(F)c2cccc(Oc3ccccc3)c2)CC1 [Compound 108-2, (S)—N-(3-(4-aminopiperidin-1-yl)-1,1-difluoro-3-oxo-1-(3-phenoxyphenyl)propan-2-yl)-6-(cyclopentyloxy)naphthalene-2-sulfonamide] | 1 to 10 µM
2 | NC1CCN(C(=O)[C@@H](NS(=O)(=O)c2ccc3cc(OC4CCCC4)ccc3c2)C(F)(F)c2ccc(OC3CCCCC3)cc2)CC1 [Compound 97-1, (R)—N-(3-(4-aminopiperidin-1-yl)-1-(4-(cyclohexyloxy)phenyl)-1,1-difluoro-3-oxopropan-2-yl)-6-(cyclopentyloxy)naphthalene-2-sulfonamide] | 1 to 10 µM
3 | CCCCOc1ccc(C(F)(F)[C@@H](C(=O)N2C3CCC2CC(N)C3)N(C)S(=O)(=O)c2ccc3cc(OC4CCCC4)ccc3c2)cc1 (stereo partly drawn) [Compound 51-1, N-((2R)-3-(3-amino-8-azabicyclo[3.2.1]octan-8-yl)-1-(4-butoxyphenyl)-1,1-difluoro-3-oxopropan-2-yl)-6-(cyclopentyloxy)-N-methylnaphthalene-2-sulfonamide] | 1 to 10 µM
4 | CCCCOc1cccc(C(F)(F)[C@@H](NS(=O)(=O)c2ccc3cc(OC4CCCC4)ccc3c2)C(=O)N2C3CCC2CC(N)C3)c1 (stereo partly drawn) [Compound 90-2, N-((2S)-3-(3-amino-8-azabicyclo[3.2.1]octan-8-yl)-1-(3-butoxyphenyl)-1,1-difluoro-3-oxopropan-2-yl)-6-(cyclopentyloxy)naphthalene-2-sulfonamide trifluoroacetate] | 1 to 10 µM
5 | CCCCOc1ccc(C(F)(F)[C@@H](NS(=O)(=O)c2ccc3cc(OC4CCCC4)ccc3c2)C(=O)N2CCC(N)CC2)cc1 [Compound 80-2, (S)—N-(3-(4-aminopiperidin-1-yl)-1-(4-butoxyphenyl)-1,1-difluoro-3-oxopropan-2-yl)-6-(cyclopentyloxy)naphthalene-2-sulfonamide] | 1 to 10 µM
6 | CC(C)Oc1ccc2cc(S(=O)(=O)N[C@H](C(=O)N3C4CCC3CC(N)C4)C(F)(F)c3ccc(-c4ccccc4)cc3)ccc2c1 (stereo partly drawn) [Compound 31-1, N-((2R)-1-([1,1′-biphenyl]-4-yl)-3-(3-amino-8-azabicyclo[3.2.1]octan-8-yl)-1,1-difluoro-3-oxopropan-2-yl)-6-isopropoxynaphthalene-2-sulfonamide trifluoroacetate] | 1 to 10 µM
7 | NC1CCN(C(=O)[C@H](NS(=O)(=O)c2ccc(OCC3CCCCC3)cc2)C(F)(F)c2cccc(Oc3ccccc3)c2)CC1 [Compound 109-2, (S)—N-(3-(4-aminopiperidin-1-yl)-1,1-difluoro-3-oxo-1-(3-phenoxyphenyl)propan-2-yl)-4-(cyclohexylmethoxy) benzenesulfonamide trifluoroacetate] | 1 to 10 µM
8 | CCCCOc1ccc(C(F)(F)[C@H](NS(=O)(=O)c2ccc3cc(OC4CCCC4)ccc3c2)C(=O)N2C3CCC2CC(N)C3)cc1 (stereo partly drawn) [Compound 82-1, N-((2R)-3-(3-amino-8-azabicyclo[3.2.1]octan-8-yl)-1-(4-butoxyphenyl)-1,1-difluoro-3-oxopropan-2-yl)-6-(cyclopentyloxy)naphthalene-2-sulfonamide trifluoroacetate] | < 1 µM
9 | COc1cc(C(F)(F)[C@@H](NS(=O)(=O)c2ccc(OCC3CCCCC3)cc2)C(=O)N2CCC(N)CC2)ccc1Cl [Compound 129-2, (S)—N-(3-(4-aminopiperidin-1-yl)-1-(4-chloro-3-methoxyphenyl)-1,1-difluoro-3-oxopropan-2-yl)-4-(cyclohexylmethoxy)benzenesulfonamide] | 10 to 30 µM
10 | NC1CCN(C(=O)[C@H](NS(=O)(=O)c2ccc3cc(OC4CCCC4)ccc3c2)C(F)(F)c2ccc(Cl)cc2)CC1 [Compound 98-2, (S)—N-(3-(4-aminopiperidin-1-yl)-1-(4-chlorophenyl)-1,1-difluoro-3-oxopropan-2-yl)-6-(cyclopentyloxy)naphthalene-2-sulfonamide] | 10 to 30 µM
11 | CCCCOc1cccc(C(F)(F)[C@H](NS(=O)(=O)c2ccc3cc(OC4CCCC4)ccc3c2)C(=O)N2C3CCC2CC(N)C3)c1 (stereo partly drawn) [Compound 90-1, N-((2R)-3-(3-amino-8-azabicyclo[3.2.1]octan-8-yl)-1-(3-butoxyphenyl)-1,1-difluoro-3-oxopropan-2-yl)-6-(cyclopentyloxy)naphthalene-2-sulfonamide trifluoroacetate] | < 1 µM
12 | NC1CC2CCC(C1)N2C(=O)[C@@H](NS(=O)(=O)c1ccc2c(cnn2CC2CCCC2)c1)C(F)(F)c1ccc(Cl)cc1 (stereo partly drawn) [Compound 88-1, N-((2R)-3-(3-amino-8-azabicyclo[3.2.1]octan-8-yl)-1-(4-chlorophenyl)-1,1-difluoro-3-oxopropan-2-yl)-1-(cyclopentylmethyl)-1H-indazole-5-sulfonamide] | 1 to 10 µM
13 | CN([C@@H](C(=O)N1C2CCC1CC(N)C2)C(F)(F)c1ccc(Br)cc1)S(=O)(=O)c1ccc2c(cnn2CC2CCCC2)c1 (stereo partly drawn) [Compound 75-2, N-((2S)-3-(3-amino-8-azabicyclo[3.2.1]octan-8-yl)-1-(4-bromophenyl)-1,1-difluoro-3-oxopropan-2-yl)-1-(cyclopentylmethyl)-N-methyl-1H-indazole-5-sulfonamide] | 30 to 100 µM
14 | NC1CC2CCC(C1)N2C(=O)[C@@H](NS(=O)(=O)c1ccc2cc(OC3CCCC3)ccc2c1)C(F)(F)c1ccc(OC2CCCCC2)cc1 (stereo partly drawn) [Compound 102-1, N-((2R)-3-(3-amino-8-azabicyclo[3.2.1]octan-8-yl)-1-(4-(cyclohexyloxy)phenyl)-1,1-difluoro-3-oxopropan-2-yl)-6-(cyclopentyloxy) naphthalene-2-sulfonamide] | < 1 µM
15 | NC1CC2CCC(C1)N2C(=O)[C@H](NC(=O)[C@@H](O)c1ccc2cc(OC3CCCC3)ccc2c1)C(F)(F)c1ccc(Br)cc1 (stereo partly drawn) [Compound 41-6, (2S)—N-((2S)-3-(3-amino-8-azabicyclo[3.2.1]octan-8-yl)-1-(4-bromophenyl)-1,1-difluoro-3-oxopropan-2-yl)-2-(6-(cyclopentyloxy)naphthalen-2-yl)-2-hydroxyacetamide trifluoroacetate] | 30 to 100 µM
16 | CN([C@@H](C(=O)N1C2CCC1CC(N)C2)C(F)(F)c1cccc(Br)c1)S(=O)(=O)c1ccc2cc(OC3CCCC3)ccc2c1 (stereo partly drawn) [Compound 67-2, N-((2S)-3-(3-amino-8-azabicyclo[3.2.1]octan-8-yl)-1-(3-bromophenyl)-1,1-difluoro-3-oxopropan-2-yl)-6-(cyclopentyloxy)-N-methylnaphthalene-2-sulfonamide] | 30 to 100 µM
17 | N[C@@H]1CCCN(C(=O)[C@H](NS(=O)(=O)c2ccc3cc(OC4CCCC4)ccc3c2)C(F)(F)c2ccc(Br)cc2)C1 [Compound 122-2, N—((S)-3-((R)-3-aminopiperidin-1-yl)-1-(4-bromophenyl)-1,1-difluoro-3-oxopropan-2-yl)-6-(cyclopentyloxy)naphthalene-2-sulfonamide] | 30 to 100 µM
18 | NC1CC2CCC(C1)N2C(=O)[C@@H](NS(=O)(=O)c1ccc2cc(OC3CCCC3)ccc2c1)C(F)(F)c1cccc(Br)c1 (stereo partly drawn) [Compound 65-1, N-((2R)-3-(3-amino-8-azabicyclo[3.2.1]octan-8-yl)-1-(3-bromophenyl)-1,1-difluoro-3-oxopropan-2-yl)-6-(cyclopentyloxy)naphthalene-2-sulfonamide] | 1 to 10 µM
19 | COc1cc(C(F)(F)[C@H](NS(=O)(=O)c2ccc3cc(OC4CCCC4)ccc3c2)C(=O)N2CCC(N)CC2)ccc1Cl [Compound 123-1, (R)—N-(3-(4-aminopiperidin-1-yl)-1-(4-chloro-3-methoxyphenyl)-1,1-difluoro-3-oxopropan-2-yl)-6-(cyclopentyloxy)naphthalene-2-sulfonamide] | < 1 µM
20 | CN([C@H](C(=O)N1C2CCC1CC(N)C2)C(F)(F)c1ccc(Br)cc1)S(=O)(=O)c1ccc2nn(CC3CCCC3)cc2c1 (stereo partly drawn) [Compound 78-1, N-((2R)-3-(3-amino-8-azabicyclo[3.2.1]octan-8-yl)-1-(4-bromophenyl)-1,1-difluoro-3-oxopropan-2-yl)-2-(cyclopentylmethyl)-N-methyl-2H-indazole-5-sulfonamide] | 1 to 10 µM
21 | NC1CC2CCC(C1)N2C(=O)[C@@H](NC(=O)[C@H](O)c1ccc2cc(OC3CCCC3)ccc2c1)C(F)(F)c1ccc(-c2ccc(Cl)cc2)cc1 (stereo partly drawn) [Compound 136-1, (2R)—N-((2R)-3-(3-amino-8-azabicyclo[3.2.1]octan-8-yl)-1-(4′-chloro-[1,1′-biphenyl]-4-yl)-1,1-difluoro-3-oxopropan-2-yl)-2-(6-(cyclopentyloxy)naphthalen-2-yl)-2-hydroxyacetamide trifluoroacetate] | 1 to 10 µM
22 | NC1CC2CCC(C1)N2C(=O)[C@@H](NS(=O)(=O)c1ccc2cc(OC3CCCC3)ccc2c1)C(F)(F)c1ccc(Cl)s1 (stereo partly drawn) [Compound 130-1, N-((2R)-3-(3-amino-8-azabicyclo[3.2.1]octan-8-yl)-1-(5-chlorothiophen-2-yl)-1,1-difluoro-3-oxopropan-2-yl)-6-(cyclopentyloxy)naphthalene-2-sulfonamide] | 1 to 10 µM
